Test results: patent publication US11147272B2, “Pyridone compounds and agricultural and horticultural fungicides comprising the same as active ingredients” (MITSUI CHEMICALS AGRO, INC., priority 2017, dated 2021)

Tests used:
Phytophthora infestans = test: whole plant or invertebrate; format: in vivo; conditions: Late blight on tomato; class of control value
[1] = system: Blumeria graminis f. sp. hordei; test: Test Example D: Powdery mildew on barley; conditions: Powdery mildew on barley; class of control value
Alternaia brassicicola = test: Test Example C: Alternaria sooty spot on cabbage; format: in vivo; conditions: Alternaria sooty spot on cabbage; class of control value
Source text: Seeds of a test plant (cabbage variety: Shikidori) were planted and cultivated until the cotyledons extended.
<Control Value> Control value=100{1−(n/3)}

Puccinia recondita = test: Test Example E: Brown rust on wheat; format: in vivo; conditions: Brown rust on wheat; class of control value
Botrytis cinerea = test: Test Example B: Gray mold on tomato; conditions: Gray mold on tomato; class of control value
Magnaporthe grisea = test: whole plant or invertebrate; format: in vivo; conditions: Blast on rice; class of control value
Plasmopara viticola = test: Test Example G: Downy mildew on vine; conditions: Downy mildew on vine (Neomuscat); 250 ppm spray, 2.5 ml/pot; assessed 7 to 10 days after inoculation
[2] = system: Colletotrichum orbiculare; test: Test Example H: Anthracnose on cucumber; conditions: Anthracnose on cucumber (Sagami Hanjiro); 250 ppm spray, 2.5 ml/pot; assessed 6 to 10 days after inoculation

Row | SMILES | Test F control value class (Phytophthora infestans) | Test D control value class [1] | Test C control value class (Alternaia brassicicola) | Test E control value class (Puccinia recondita) | Test B control value class (Botrytis cinerea) | Test A control value class (Magnaporthe grisea) | Test G control value class (Plasmopara viticola) | Test H control value class [2]
1 | CCn1c(-c2c(F)cc(OC)cc2F)c(CN(OC)C(=O)OC)cc(Cl)c1=O [compound 131] | L (50% or less control value) | H (more than 50% control value) | H (more than 50% control value) | H (more than 50% control value) | H (more than 50% control value) | H (more than 50% control value) | H (more than 50% control value) | H (more than 50% control value)
2 | CCn1c(-c2c(F)cc(F)cc2F)c(CN(OC)C(C)=O)cc(Cl)c1=O [compound 132] | L (50% or less control value) | L (50% or less control value) | H (more than 50% control value) | L (50% or less control value) | L (50% or less control value) | H (more than 50% control value) | L (50% or less control value) | L (50% or less control value)
3 | CCn1c(-c2c(F)cc(F)cc2F)c(CN(OC)C(=O)OC)cc(Cl)c1=O [compound 133] | L (50% or less control value) | H (more than 50% control value) | H (more than 50% control value) | H (more than 50% control value) | H (more than 50% control value) | H (more than 50% control value) | H (more than 50% control value) | H (more than 50% control value)
4 | CC(C)Cc1ccc(=O)n(C)c1-c1ccc(Cl)cc1Cl [compound 134] | L (50% or less control value) | H (more than 50% control value) | L (50% or less control value) | H (more than 50% control value) | H (more than 50% control value) | H (more than 50% control value) | H (more than 50% control value) | L (50% or less control value)
5 | CCn1c(-c2ccc(Cl)cc2Cl)c(CC(C)C)ccc1=O [compound 135] | L (50% or less control value) | H (more than 50% control value) | H (more than 50% control value) | H (more than 50% control value) | H (more than 50% control value) | H (more than 50% control value) | H (more than 50% control value) | H (more than 50% control value)
6 | CCn1c(-c2ccc(Br)cc2F)c(CC(C)C)ccc1=O [compound 136] | L (50% or less control value) | H (more than 50% control value) | L (50% or less control value) | H (more than 50% control value) | H (more than 50% control value) | H (more than 50% control value) | H (more than 50% control value) | L (50% or less control value)
7 | CC(C)Cc1cc(Cl)c(=O)n(C)c1-c1ccc(Cl)cc1Cl [compound 137] | L (50% or less control value) | H (more than 50% control value) | H (more than 50% control value) | H (more than 50% control value) | H (more than 50% control value) | H (more than 50% control value) | H (more than 50% control value) | H (more than 50% control value)
8 | CC(C)Cc1cc(Br)c(=O)n(C)c1-c1ccc(Cl)cc1Cl [compound 138] | L (50% or less control value) | L (50% or less control value) | H (more than 50% control value) | H (more than 50% control value) | H (more than 50% control value) | H (more than 50% control value) | L (50% or less control value) | H (more than 50% control value)
9 | CCn1c(-c2ccc(Cl)cc2Cl)c(CC(C)C)cc(Cl)c1=O [compound 139] | L (50% or less control value) | H (more than 50% control value) | H (more than 50% control value) | H (more than 50% control value) | H (more than 50% control value) | H (more than 50% control value) | H (more than 50% control value) | H (more than 50% control value)
10 | CCn1c(-c2ccc(Cl)cc2Cl)c(CC(C)C)cc(Br)c1=O [compound 140] | L (50% or less control value) | H (more than 50% control value) | H (more than 50% control value) | H (more than 50% control value) | H (more than 50% control value) | H (more than 50% control value) | H (more than 50% control value) | H (more than 50% control value)
11 | CCn1c(-c2ccc(C)cc2F)c(CC(C)C)ccc1=O [compound 141] | L (50% or less control value) | H (more than 50% control value) | H (more than 50% control value) | H (more than 50% control value) | H (more than 50% control value) | H (more than 50% control value) | H (more than 50% control value) | L (50% or less control value)
12 | CCn1c(-c2ccc(Br)cc2F)c(CC(C)C)cc(Br)c1=O [compound 142] | L (50% or less control value) | H (more than 50% control value) | H (more than 50% control value) | H (more than 50% control value) | H (more than 50% control value) | H (more than 50% control value) | H (more than 50% control value) | H (more than 50% control value)
13 | CCn1c(-c2ccc(Br)cc2F)c(CC(C)C)cc(Cl)c1=O [compound 143] | L (50% or less control value) | H (more than 50% control value) | H (more than 50% control value) | H (more than 50% control value) | H (more than 50% control value) | H (more than 50% control value) | H (more than 50% control value) | H (more than 50% control value)
14 | CCn1c(-c2ccc(F)cc2)c(CC(C)C)ccc1=O [compound 144] | L (50% or less control value) | H (more than 50% control value) | H (more than 50% control value) | H (more than 50% control value) | L (50% or less control value) | L (50% or less control value) | H (more than 50% control value) | L (50% or less control value)
15 | CC(C)Cc1ccc(=O)n(C)c1-c1ccc(F)cc1 [compound 145] | L (50% or less control value) | L (50% or less control value) | H (more than 50% control value) | H (more than 50% control value) | L (50% or less control value) | L (50% or less control value) | L (50% or less control value) | L (50% or less control value)
16 | CCn1c(-c2ccc(C)cc2F)c(CC(C)C)cc(Cl)c1=O [compound 146] | L (50% or less control value) | H (more than 50% control value) | H (more than 50% control value) | H (more than 50% control value) | H (more than 50% control value) | H (more than 50% control value) | H (more than 50% control value) | L (50% or less control value)
17 | CCn1c(-c2ccc(C)cc2F)c(CC(C)C)cc(Br)c1=O [compound 147] | L (50% or less control value) | H (more than 50% control value) | H (more than 50% control value) | H (more than 50% control value) | H (more than 50% control value) | H (more than 50% control value) | H (more than 50% control value) | L (50% or less control value)
